Calls of active or inactive are those of the source. Unless noted, no cut-off for these calls is given here.
Key:
Type in all cases: functional
Mu-type opioid receptor [1] = target: T1, Mu-type opioid receptor (Homo sapiens, UniProt P35372); test: SAR Analysis of Antagonists of the MOR Receptor using an Image-Based Assay - Set 2. [Related pubchem assays (depositor defined):AID1777, AID1785, AID1786, AID1966, AID2133, AID2136, AID2284, AID2285, AID2420]
[2] = target: T2, Kappa-type opioid receptor (Homo sapiens, UniProt P41145); test: SAR analysis of Agonists of the Kappa Opioid Receptor (KOR) using an Image-Based Assay - Set 2. [Related pubchem assays (depositor defined):AID1777, AID1786, AID1966, AID2133, AID2136, AID2284, AID2285, AID2359]
T2 sequence (P41145 whole entry): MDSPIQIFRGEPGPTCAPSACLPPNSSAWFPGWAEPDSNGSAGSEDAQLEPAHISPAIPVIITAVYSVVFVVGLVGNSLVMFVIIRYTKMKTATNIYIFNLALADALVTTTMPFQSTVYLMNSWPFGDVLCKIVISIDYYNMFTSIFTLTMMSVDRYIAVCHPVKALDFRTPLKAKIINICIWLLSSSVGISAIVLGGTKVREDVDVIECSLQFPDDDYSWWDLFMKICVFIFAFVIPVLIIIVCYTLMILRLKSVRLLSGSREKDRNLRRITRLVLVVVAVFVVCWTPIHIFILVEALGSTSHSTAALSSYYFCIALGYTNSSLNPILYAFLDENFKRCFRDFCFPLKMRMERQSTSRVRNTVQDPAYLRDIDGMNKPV

[3] = target: T2, Kappa-type opioid receptor; test: SAR analysis of Antagonists of the Kappa Opioid Receptor (KOR) using an Image-Based Assay - Set 2. [Related pubchem assays (depositor defined):AID1777, AID1785, AID1786, AID1966, AID2133, AID2136, AID2284, AID2285, AID2348]
[4] = target: T3, Delta-type opioid receptor (Homo sapiens, UniProt P41143); test: SAR Analysis of Agonists of the DOR Receptor using an Image-Based Assay - Set 2. [Related pubchem assays (depositor defined):AID1777, AID1785, AID1786, AID1966, AID2133, AID2136, AID2284, AID2285, AID2370]
T3 sequence (P41143 whole entry): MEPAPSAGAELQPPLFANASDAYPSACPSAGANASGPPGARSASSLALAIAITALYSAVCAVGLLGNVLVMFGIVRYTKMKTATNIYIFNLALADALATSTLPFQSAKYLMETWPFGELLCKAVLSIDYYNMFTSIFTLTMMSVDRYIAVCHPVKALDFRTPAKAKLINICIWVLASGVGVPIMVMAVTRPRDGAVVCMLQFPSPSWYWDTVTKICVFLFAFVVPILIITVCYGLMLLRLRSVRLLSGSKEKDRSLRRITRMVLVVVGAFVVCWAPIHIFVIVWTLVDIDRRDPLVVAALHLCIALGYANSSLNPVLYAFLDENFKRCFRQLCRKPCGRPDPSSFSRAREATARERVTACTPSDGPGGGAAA

[5] = target: T2, Kappa-type opioid receptor; test: SAR analysis of small molecule agonists of the kappa opioid receptor via a luminescent beta-arrestin assay - Set 2. [Related pubchem assays (depositor defined):AID1777, AID1785, AID1786, AID1966, AID2133, AID2136, AID2284, AID449737]
Mu-type opioid receptor [6] = target: T1, Mu-type opioid receptor; test: SAR Analysis of Agonists of the MOR Receptor using an Image-Based Assay - Set 2. [Related pubchem assays (depositor defined):AID1777, AID1785, AID1786, AID1966, AID2133, AID2136, AID2284, AID2285, AID2352]
[7] = target: T3, Delta-type opioid receptor; test: SAR Analysis of Antagonists of the DOR Receptor using an Image-Based Assay - Set 2. [Related pubchem assays (depositor defined):AID1777, AID1785, AID1786, AID1966, AID2133, AID2136, AID2284, AID2285, AID2357]

T1 sequence (P35372 whole entry): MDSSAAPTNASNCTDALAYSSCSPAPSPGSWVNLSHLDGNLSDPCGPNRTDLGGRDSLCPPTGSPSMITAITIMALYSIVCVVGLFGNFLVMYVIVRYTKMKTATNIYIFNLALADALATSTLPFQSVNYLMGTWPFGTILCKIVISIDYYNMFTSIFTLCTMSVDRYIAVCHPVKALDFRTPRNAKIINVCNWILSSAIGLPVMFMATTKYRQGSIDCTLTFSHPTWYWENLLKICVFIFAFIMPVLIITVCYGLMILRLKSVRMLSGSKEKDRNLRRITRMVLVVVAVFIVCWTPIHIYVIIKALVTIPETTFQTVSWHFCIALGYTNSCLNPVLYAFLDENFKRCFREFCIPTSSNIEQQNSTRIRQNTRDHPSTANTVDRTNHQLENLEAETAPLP

SMILES: COc1ccc(CSc2nnc(-c3ccccn3)n2Cc2cccs2)cc1
- IC50 (Mu-type opioid receptor [1]): > 32 µM (inactive)
- EC50 [2]: 5.98 µM (active)
- IC50 [3]: > 32 µM (inactive)
- EC50 [4]: > 32 µM (inactive)
- EC50 [5]: 9.61 µM (active)
- EC50 (Mu-type opioid receptor [6]): > 32 µM (inactive)
- IC50 [7]: > 32 µM (inactive)
